Values after ≈ are worked out from the molar mass of the structure shown. Read-outs that look alike come from different tables or passages of the source.
Columns and labels:
[1] = test system: M. abscessus subsp. bolletii CCUG 50184T; assay: microbe, parasite or virus in culture; type: cell-based, Mycobacterium abscessus; details: Mycobacteroides abscessus, 72 h
[2] = test system: M. abscessus subsp. abscessus M337; assay: microbe, parasite or virus in culture; type: cell-based, Mycobacterium abscessus; details: Mycobacteroides abscessus, 72 h
[3] = test system: M. abscessus subsp. abscessus ATCC 19977; assay: microbe, parasite or virus in culture; type: cell-based, Mycobacterium abscessus; details: Mycobacteroides abscessus
[4] = test system: M. abscessus Bamboo RM3 (GyrA D91N); assay: microbe, parasite or virus in culture; type: cell-based, Mycobacterium abscessus; details: Mycobacteroides abscessus
[5] = test system: M. abscessus Bamboo biofilms; assay: Biofilm growth inhibition assay (biofilm MIC and MBC); type: cell-based, Mycobacterium abscessus; details: Mycobacteroides abscessus, Biofilm, M. abscessus Bamboo; for MBC: 10-fold reduction of CFU/peg vs 24 h; for MIC: 90% reduction of CFU/peg relative to drug-free biofilm growth, 48 h
Description: The biofilm growth inhibition assay was performed as previously described ([52]). Innovotech MBEC 96-well Biofilm Assay Plates (Innovotech 19111, Edmonton, AB, Alberta, Canada) were used, and the supplier’s manual was followed with minor modifications. Midlog phase M. abscessus Bamboo precultures (OD600 = 0.4–0.6) were spun down at 3,200 × g for 10 min at 25°C and washed with 7H9 medium without Tween 80 (7H9nt). Bacteria were resuspended into 25 ml 7H9nt to an OD600 = 0.0125 (1.0 × 10^6 CFU/ml). 150 μl of bacteria suspension was dispensed into each well of MBEC multititer plates and the polystyrene protrusions (pegs) of the MBEC lid were inserted into the culture-containing wells for 24 h at 37°C on an orbital shaker at 110 rpm to allow attachment of the bacteria to the pegs and initiation of biofilm growth. The lids with the pegs (now with 1-day-old biofilms) were transferred to new MBEC multititer plates containing 150 μl of fresh 7H9nt medium per well without bacteria (0 h time point). After that, the lids with biofilm-laden pegs were transferred once a day to a new multititer plate containing fresh 7H9nt medium. To measure growth of the biofilm formed on the peg, the pegs were washed in 200 μl of 7H9nt medium before they were aseptically removed and placed in 1.7 ml microcentrifuge tubes (VWR 87003-294, Rador, PA, United States) containing 500 μl PBS/Tween 80. The microcentrifuge tubes were vigorously vortexed at 2,000 rpm for 90 s at 25°C to detach the bacteria from the pegs before samples were serially diluted and plated for the determination of CFU/peg. […] The average drug-free biofilm growth was calculated by subtracting the average 24 h CFU/peg value from the average 72 h CFU/peg value for the untreated control pegs. The biofilm MIC was defined as the lowest drug concentration that reduced the CFU/peg by 90% relative to the average drug-free biofilm growth.

[6] = test system: M. abscessus Bamboo RM4 (GyrA D91G); assay: microbe, parasite or virus in culture; type: cell-based, Mycobacterium abscessus; details: Mycobacteroides abscessus
[7] = test system: nutrient-starved, nonreplicating M. abscessus Bamboo; assay: MBC determination under nutrient-starved conditions; type: cell-based, Mycobacterium abscessus; details: Mycobacteroides abscessus, 48 h drug exposure
Description: The determination of drug bactericidal activity against nutrient-starved M. abscessus cultures was performed as previously described ([52]). […] Washed culture was then diluted with PBS/Tyloxapol to OD600 = 0.2 (1.8 × 10^7 CFU/ml). […] Appropriate concentrations of drugs up to 100 μM were added to the tubes prior to incubation at 37°C on a tilted rack in an orbital shaker at 220 rpm.

M. avium 11 = assay: microbe, parasite or virus in culture; type: cell-based; details: Mycobacterium avium, 11, 96 h
[8] = test system: M. abscessus Bamboo RM1 (GyrA M129K); assay: microbe, parasite or virus in culture; type: cell-based, Mycobacterium abscessus; details: Mycobacteroides abscessus
[9] = test system: M. abscessus subsp. abscessus M422; assay: microbe, parasite or virus in culture; type: cell-based, Mycobacterium abscessus; details: Mycobacteroides abscessus, 72 h
[10] = test system: M. intracellulare ATCC 13950; assay: microbe, parasite or virus in culture; type: cell-based; details: Mycobacterium intracellulare, ATCC13950, 96 h
[11] = test system: M. abscessus ATCC 19977 MXF_R1 (GyrA D96Y); assay: microbe, parasite or virus in culture; type: cell-based, Mycobacterium abscessus
[12] = test system: M. abscessus subsp. massiliense M111; assay: microbe, parasite or virus in culture; type: cell-based, Mycobacterium abscessus; details: Mycobacteroides abscessus, 72 h
[13] = test system: anaerobic, nonreplicating M. abscessus Bamboo; assay: MBC determination under anaerobic conditions; type: cell-based, Mycobacterium abscessus; details: Mycobacteroides abscessus, 48 h drug exposure
[14] = test system: M. abscessus ATCC 19977 MXF_R2 (GyrA D96N); assay: microbe, parasite or virus in culture; type: cell-based, Mycobacterium abscessus
[15] = test system: M. abscessus Bamboo RM2 (GyrA D91N); assay: microbe, parasite or virus in culture; type: cell-based, Mycobacterium abscessus; details: Mycobacteroides abscessus
[16] = test system: M. abscessus ATCC 19977 MXF_R3 (GyrA D96G); assay: microbe, parasite or virus in culture; type: cell-based, Mycobacterium abscessus
[17] = test system: M. abscessus subsp. massiliense CCUG 48898T; assay: microbe, parasite or virus in culture; type: cell-based, Mycobacterium abscessus; details: Mycobacteroides abscessus, 72 h
[18] = test system: M. abscessus subsp. abscessus K21; assay: microbe, parasite or virus in culture; type: cell-based, Mycobacterium abscessus; details: Mycobacteroides abscessus, 72 h
[19] = test system: M. abscessus subsp. abscessus K21; assay: M. abscessus mouse infection model; type: in vivo, Mycobacterium abscessus; details: NOD SCID mice, intranasal infection
Description: In vivo efficacy determinations were carried out as described previously, using 8-week-old female NOD.CB17-Prkdc^scid/NCrCrl (NOD SCID) mice (Charles River Laboratories) and the M. abscessus subsp. abscessus K21 strain ([48]). Briefly, anesthetized animals were infected by intranasal delivery of ∼10^6 CFU of M. abscessus subsp. abscessus K21. Acute infection was achieved within 1 day. Drugs or the vehicle control was administered to NOD SCID mice once daily for 10 consecutive days by oral gavage, starting from 1 day postinfection. Clarithromycin was formulated in 0.4% methyl cellulose–sterile water and administered at a dose of 250 mg/kg. […] EC/11716 was formulated in 0.4% methyl cellulose–sterile water and administered at 400 mg/kg. All mice were euthanized 24 h after the last dose (11 days postinfection), and their lungs and spleen were aseptically removed prior to homogenization. The bacterial load in these organs was determined by plating serial dilutions of the organ homogenates onto Middlebrook 7H11 agar (BD Difco) supplemented with 0.2% (vol/vol) glycerol and 10% (vol/vol) OADC. The agar plates were incubated for 5 days at 37°C prior to counting of colonies. All studies were conducted in accordance with the GSK Policy on the Care, Welfare and Treatment of Laboratory Animals and were reviewed the Institutional Animal Care and Use Committee either at GSK or by the ethical review process at the institution where the work was performed. All experiments involving live animals were approved by the Institutional Animal Care and Use Committee of the Center for Discovery and Innovation, Hackensack Meridian Health.

[20] = test system: M. abscessus subsp. bolletii M506; assay: microbe, parasite or virus in culture; type: cell-based, Mycobacterium abscessus; details: Mycobacteroides abscessus, 72 h
[21] = test system: M. abscessus subsp. abscessus M9; assay: microbe, parasite or virus in culture; type: cell-based, Mycobacterium abscessus; details: Mycobacteroides abscessus, 72 h
[22] = test system: M. abscessus subsp. abscessus M199; assay: microbe, parasite or virus in culture; type: cell-based, Mycobacterium abscessus; details: Mycobacteroides abscessus, 72 h
M. abscessus Bamboo [23] = assay: microbe, parasite or virus in culture; type: cell-based, Mycobacterium abscessus; details: Mycobacteroides abscessus
M. abscessus Bamboo [24] = assay: MIC and MBC determination in culture tubes (planktonic); type: cell-based, Mycobacterium abscessus; details: for MBC: 10-fold reduction in CFU/ml vs day 0; for MIC: 48 h, day 2
[25] = test system: M. abscessus subsp. abscessus M404; assay: microbe, parasite or virus in culture; type: cell-based, Mycobacterium abscessus; details: Mycobacteroides abscessus, 72 h
[26] = test system: M. abscessus subsp. bolletii M232; assay: microbe, parasite or virus in culture; type: cell-based, Mycobacterium abscessus; details: Mycobacteroides abscessus, 72 h
[27] = test system: M. tuberculosis H37Rv ATCC 27294; assay: microbe, parasite or virus in culture; type: cell-based; details: Mycobacterium tuberculosis, 168 h
[28] = Mycobacteroides abscessus, ATCC19977

| SMILES | MIC [1] | MIC [2] | MIC ([3]; ATCC19977) | MIC ([3]; ATCC19977, 72 h) | MIC [4] | MBC [5] | MIC [5] | MIC [6] | MIC (M. avium 11) | MIC [8] | MIC [9] | MIC [10] | MIC [11, 28] | MIC [12] | MIC [14, 28] | MIC [15] | MIC [16, 28] | MIC [17] | MIC [18] | MIC [20] | also measured |
| --- | --- | --- | --- | --- | --- | --- | --- | --- | --- | --- | --- | --- | --- | --- | --- | --- | --- | --- | --- | --- | --- |
| CC[C@H]1OC(=O)[C@H](C)[C@@H](O[C@H]2C[C@@](C)(OC)[C@@H](O)[C@H](C)O2)[C@H](C)[C@@H](O[C@@H]2O[C@H](C)C[C@H](N(C)C)[C@H]2O)[C@](C)(OC)C[C@@H](C)C(=O)[C@H](C)[C@@H](O)[C@]1(C)O [CLR, clarithromycin] | 2.5 µM (≈ 1.87 µg/mL) | 0.9 µM (≈ 0.673 µg/mL) | 1.2 µM (≈ 0.898 µg/mL) | 0.9 µM (≈ 0.673 µg/mL) | 0.27 µM (≈ 0.202 µg/mL) | > 100 µM | 1.6 µM (≈ 1.2 µg/mL) | 0.26 µM (≈ 0.194 µg/mL) | 0.3 µM (≈ 0.224 µg/mL) | 0.24 µM (≈ 0.18 µg/mL) | 0.65 µM (≈ 0.486 µg/mL) | 0.15 µM (≈ 0.112 µg/mL) | 1.5 µM (≈ 1.12 µg/mL) | 0.24 µM (≈ 0.18 µg/mL) | 0.73 µM (≈ 0.546 µg/mL) | 0.29 µM (≈ 0.217 µg/mL) | 0.34 µM (≈ 0.254 µg/mL) | 0.19 µM (≈ 0.142 µg/mL) | 0.4 µM (≈ 0.299 µg/mL) | 0.28 µM (≈ 0.209 µg/mL) | MBC [7]: > 100 µM; MBC [13]: > 100 µM; reduction in lung CFU ([19]; 250 mg/kg oral once daily for 10 days, EC/11716 reduction stated on par with it): ~1 log; MIC [21]: 0.73 µM (≈ 0.546 µg/mL); MIC [22]: 2.7 µM (≈ 2.02 µg/mL); MIC (M. abscessus Bamboo [23]): 0.33 µM (≈ 0.247 µg/mL); MIC (M. abscessus Bamboo [23]; 72 h): 0.23 µM (≈ 0.172 µg/mL); MBC (M. abscessus Bamboo [24]): >100 µM; MBC (M. abscessus Bamboo [24]; Mycobacteroides abscessus, 0 h): > 100 µM; MIC (M. abscessus Bamboo [24]; Mycobacteroides abscessus): 0.28 µM (≈ 0.209 µg/mL); MIC [25]: 0.2 µM (≈ 0.15 µg/mL); MIC [26]: 0.95 µM (≈ 0.711 µg/mL) |
| COc1c(N2C[C@@H]3CCCN[C@@H]3C2)c(F)cc2c(=O)c(C(=O)O)cn(C3CC3)c12 [MXF, moxifloxacin] | 6.3 µM (≈ 2.53 µg/mL) | 2.9 µM (≈ 1.16 µg/mL) | 3.6 µM (≈ 1.45 µg/mL) | 3.6 µM (≈ 1.45 µg/mL) | 47 µM (≈ 18.9 µg/mL) | 25 µM (≈ 10 µg/mL) | 6 µM (≈ 2.41 µg/mL) | 27 µM (≈ 10.8 µg/mL) | 1.3 µM (≈ 0.522 µg/mL) | 20 µM (≈ 8.03 µg/mL) | 2.7 µM (≈ 1.08 µg/mL) | 0.4 µM (≈ 0.161 µg/mL) | > 50 µM | 6.7 µM (≈ 2.69 µg/mL) | > 50 µM | 42 µM (≈ 16.9 µg/mL) | > 50 µM | 8 µM (≈ 3.21 µg/mL) | 7.3 µM (≈ 2.93 µg/mL) | 7.1 µM (≈ 2.85 µg/mL) | MIC [27]: 0.6 µM (≈ 0.241 µg/mL); MIC [11]: >100 µM; MIC [14]: 68 µM (≈ 27.3 µg/mL); MIC [16]: 54 µM (≈ 21.7 µg/mL); reduction in lung CFU burden ([19]; 200 mg/kg oral once daily for 10 days, not statistically significant): 0.6 log; MIC [21]: 2.9 µM (≈ 1.16 µg/mL); MIC [22]: 4.8 µM (≈ 1.93 µg/mL); MIC (M. abscessus Bamboo [23]): 5.4 µM (≈ 2.17 µg/mL); MIC (M. abscessus Bamboo [23]; 72 h): 4.6 µM (≈ 1.85 µg/mL); MBC (M. abscessus Bamboo [24]; Mycobacteroides abscessus, 0 h): 3.1 µM (≈ 1.24 µg/mL); MIC (M. abscessus Bamboo [24]; Mycobacteroides abscessus): 1.9 µM (≈ 0.763 µg/mL); MIC [25]: 5 µM (≈ 2.01 µg/mL); MIC [26]: 3.2 µM (≈ 1.28 µg/mL) |
| CO[C@H]1/C=C/O[C@@]2(C)Oc3c(C)c(O)c4c(O)c(c(/C=N/N5CCN(C)CC5)c(O)c4c3C2=O)NC(=O)/C(C)=C\C=C\[C@H](C)[C@H](O)[C@@H](C)[C@@H](O)[C@@H](C)[C@H](OC(C)=O)[C@@H]1C [rifampin] |  |  |  |  |  |  |  |  |  |  |  |  |  |  |  |  |  |  |  |  | MIC [27]: 0.66 µM (≈ 0.543 µg/mL) |

From paper PMC8597734 (Antimicrobial Agents and Chemotherapy, 2021)
